Broadly, the IC50 is the concentration needed to halve the response being measured.

Activity calls are given as the source filed them. The rule behind the calls is not given here. Some results are limits rather than exact numbers.

Results on 21 molecules are retold here after PubChem BioAssay AID1159564 (GlaxoSmithKline (GSK), 2015).

In this test the test system is L. donovani-infected THP-1 macrophages, intracellular amastigote imaging. The test is described as follows: intracellular L. donovani amastigote inhibition, imaging, THP-1 host macrophages, host toxicity (AID 1159564).
[1] abbreviates: measured here: THP-1 host cell toxicity.
[2] abbreviates: measured here: amastigotes per macrophage.

As to `Cc1ccc(Nc2nc(-c3ccccn3)cc(N3CCCC(O)C3)n2)cc1` (configuration not stated), the IC50 was 0.79 µM. Further, the IC50 under setting [1] is 25 µM. This molecule showed an IC50 under setting [2] of 0.5 µM.
For `Cc1ccc(NC(=O)c2ccnc(N3CCCC3)c2)cc1-c1cc(C(N)=O)ccc1C`, the IC50 is 40 µM. Besides, under setting [1], the IC50 turned out to be 32 µM. For the same molecule, under setting [2], the half-maximal inhibitory concentration (IC50) is 25 µM.
Consider `CN(C)S(=O)(=O)c1cccc(CSc2nnc(-c3ccc4c(c3)OCO4)o2)c1`, for which the IC50 was 2 µM. Moreover, the IC50 under setting [1] is over 50 µM. Also, under setting [2], the IC50 amounted to 0.63 µM.
As for `Cc1cc(NC(=O)C2CCCCC2)n(-c2nc3c(c(=O)[nH]2)CCC3)n1`, the concentration for half-maximal inhibition (IC50) was 5 µM. The molecule also returned an IC50 under setting [1] of 10 µM. Also, the IC50 under setting [2] stood at 3.2 µM.
`O=c1oc2ccccc2n1C1CCN(Cc2ccccc2-c2cccnc2)CC1`: the IC50 was > 50 µM (inactive). The IC50 under setting [1] came out at 13 µM. Further, the IC50 under setting [2] was determined as 6.3 µM.
Taken in the same sequence, the figures for `COc1ccc2ncc(Cl)c(CCN3CC[C@@H](NCc4cc5c(cn4)OCS5)[C@H](O)C3)c2n1` were 13 µM, 25 µM and 7.9 µM.
Take `Clc1ccc(CN2CCN(C3=NCCN3)CC2)cc1Cl`: the IC50 was > 50 µM (inactive). Besides, the IC50 under setting [1] was over 50 µM. The same molecule gave an IC50 under setting [2] of over 50 µM.
For `O=C(NCc1nnc2n1CCCCC2)c1csc(-c2ccccc2)n1`, the IC50 is > 50 µM (inactive). The molecule also came in with an IC50 under setting [1] of over 50 µM. Under setting [2], the IC50 was over 50 µM.
Regarding `CN(C)S(=O)(=O)c1ccc(Cl)c(C(=O)Nc2nc(-c3ccccn3)cs2)c1`, the IC50 was 10 µM. The IC50 under setting [1] was 6.3 µM. Under setting [2], this molecule came in with an IC50 of 5 µM.
Take `CCC(=O)N1N=C(c2ccc3c(c2)CCCC3)Sc2c1ncn2C(=O)CC`: the IC50 is 3.2 µM. The molecule further showed an IC50 under setting [1] of over 50 µM. This molecule registered an IC50 under setting [2] of 2.5 µM.
Turning to `O=C(NCCc1ccccn1)C(c1cn[nH]c1)N1CCN(c2ccc(Cl)c(Cl)c2)CC1` (configuration not stated), the IC50 was > 50 µM (inactive). Under setting [1], this molecule displayed an IC50 of over 50 µM. This molecule yielded an IC50 under setting [2] of 20 µM.
As to `O=C1CN(C(=O)c2cccc(Nc3ncc(-c4ccc5c(c4)OCO5)cn3)c2)CCN1`, the IC50 is 5 µM. For the same molecule, the IC50 under setting [1] came out at 63 µM. This molecule also displayed an IC50 under setting [2] of 2 µM.
The like results for `Cc1ccc(CNC2CCN(C[C@@H]3Cn4c(=O)ccc5ccc(=O)n3c54)CC2)cc1F` were, in that order, > 50 µM (inactive), over 50 µM and over 50 µM.
Consider `Fc1ccccc1N1C[C@H]2CCN(c3cccnc3)C[C@H]2C1`, for which the IC50 is > 50 µM (inactive). The molecule further registered an IC50 under setting [1] of over 50 µM.
In the case of `CC1=C(C(=O)Nc2ccc(Cl)cc2)C(c2ccncc2)n2ncc(C(=O)Nc3ccccc3)c2N1` (configuration not stated), the IC50 is > 50 µM (inactive). For the same molecule, the IC50 under setting [1] is 13 µM. Under setting [2], the IC50 is over 50 µM.
For the molecule `C[C@@H](Oc1cc(-n2cnc3cc(N)ccc32)sc1C(N)=O)c1ccccc1Cl`, the IC50 is 32 µM. For the same molecule, under setting [1], the 50% inhibitory concentration (IC50) was found to be 25 µM. This molecule also gave an IC50 under setting [2] of 20 µM.
As to `COc1ccc(Cl)cc1CC(=O)Nc1n[nH]c(-c2ccccn2)n1`, the IC50 is 6.3 µM. Also, under setting [1], the IC50 is over 50 µM. For the same molecule, the IC50 under setting [2] is 5 µM.
Taken in the same sequence, the figures for `CC(C)Nc1nc(Cl)nc2ccccc12` were 2.5 µM, 20 µM and 1.3 µM.
Turning to `CCN(Cc1ccncc1)Cc1ccc(NC(=O)c2cc(-c3ccc(F)cc3)n[nH]2)cc1`, the IC50 was > 50 µM (inactive). Under setting [1], this molecule showed an IC50 of 5 µM. The molecule further yielded an IC50 under setting [2] of 2.5 µM.
On to `Cc1cc2nc(CN(C)Cc3ncccc3C)[nH]c2cc1C`, for which the IC50 is 0.63 µM. The IC50 under setting [1] came out at 7.9 µM. The IC50 under setting [2] was determined as 0.5 µM.
For `O=C(NC(c1ccc(Cl)cc1)c1cnccn1)C1CCN(C(=O)Nc2cccc(C(F)(F)F)c2)CC1` (configuration not stated), the IC50 was > 50 µM (inactive). In addition, the IC50 under setting [1] is 40 µM. The same molecule registered an IC50 under setting [2] of over 50 µM.
